Each structure is given as a SMILES string. Calls of active or inactive are those of the source. The rule behind the calls is not given here.

One data set can be described thus: cells. The conditions noted are these: Homo sapiens, IGROV-1, 72 h.
The subject of the next data set is IGROV-1. The experiment in a line: cells. The conditions noted are these: Homo sapiens, IGROV-1, 72 h.
The test system of a further data set is HCT-116. Kind of data set: Antitumor activity against human HCT116 cells xenografted in Swiss mouse assessed as tumor growth inhibition at 10 mg/kg, ip dosed starting day 1 post tumor implantation and repeated every 7 days for 4 times. The data set is classed as functional, organism-based. Background: Xenograft models place foreign cells or tissue in a host animal.

A further data set concerns Mus musculus. Kind of data set: Toxicity in human HCT116 cells xenografted Swiss mouse at 10 mg/kg, ip dosed starting day 1 post tumor implantation and repeated every 7 days for 4 times. The data set is classed as organism-based, HCT-116. The settings on record: in vivo, 168 h.
In the next data set the target is Histone deacetylase 1 (Homo sapiens, UniProt Q13547). The experiment in a line: Inhibition of HDAC1 (unknown origin) incubated for 1 hr by fluor de lys substrate based fluorescence method.
Data set [1] deals with T1, Protein deacetylase HDAC6 (Homo sapiens, UniProt Q9UBN7).
T1 sequence (Q9UBN7 whole entry): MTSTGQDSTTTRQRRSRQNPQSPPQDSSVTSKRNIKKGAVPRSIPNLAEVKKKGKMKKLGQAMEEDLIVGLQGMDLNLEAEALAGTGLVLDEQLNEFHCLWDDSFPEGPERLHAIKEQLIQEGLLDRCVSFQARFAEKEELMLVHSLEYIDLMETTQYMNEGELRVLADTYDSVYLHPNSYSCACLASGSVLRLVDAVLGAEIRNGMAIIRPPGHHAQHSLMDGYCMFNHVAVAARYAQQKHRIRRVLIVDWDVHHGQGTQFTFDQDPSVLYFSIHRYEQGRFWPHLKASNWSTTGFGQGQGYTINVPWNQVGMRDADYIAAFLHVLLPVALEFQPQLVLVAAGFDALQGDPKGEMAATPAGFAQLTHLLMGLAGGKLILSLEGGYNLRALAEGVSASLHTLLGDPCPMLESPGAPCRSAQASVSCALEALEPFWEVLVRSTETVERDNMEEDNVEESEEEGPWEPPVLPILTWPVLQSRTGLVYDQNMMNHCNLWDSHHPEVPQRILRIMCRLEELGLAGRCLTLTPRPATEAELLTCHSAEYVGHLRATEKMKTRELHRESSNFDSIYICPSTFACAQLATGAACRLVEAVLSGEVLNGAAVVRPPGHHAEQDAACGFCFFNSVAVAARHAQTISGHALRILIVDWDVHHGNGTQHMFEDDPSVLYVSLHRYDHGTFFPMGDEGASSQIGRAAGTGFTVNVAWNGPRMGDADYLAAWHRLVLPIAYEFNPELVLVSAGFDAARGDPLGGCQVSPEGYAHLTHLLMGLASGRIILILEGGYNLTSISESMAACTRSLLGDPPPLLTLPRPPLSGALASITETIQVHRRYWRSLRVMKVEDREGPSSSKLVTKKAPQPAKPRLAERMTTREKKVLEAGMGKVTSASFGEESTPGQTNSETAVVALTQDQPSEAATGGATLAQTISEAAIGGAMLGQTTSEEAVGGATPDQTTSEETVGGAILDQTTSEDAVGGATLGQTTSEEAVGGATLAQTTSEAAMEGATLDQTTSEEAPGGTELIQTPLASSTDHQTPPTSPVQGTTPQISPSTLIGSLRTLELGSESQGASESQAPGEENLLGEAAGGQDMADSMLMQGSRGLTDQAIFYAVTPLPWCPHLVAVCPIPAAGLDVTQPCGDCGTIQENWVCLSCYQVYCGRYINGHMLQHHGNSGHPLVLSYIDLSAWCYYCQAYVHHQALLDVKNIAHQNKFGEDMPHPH
Kind of data set: Inhibition of HDAC6 (unknown origin) incubated for 1 hr by fluor de lys substrate based fluorescence method.

For a further data set, the target named is T2, Histone deacetylase 8 (Homo sapiens, UniProt Q9BY41).
T2 sequence (Q9BY41 whole entry): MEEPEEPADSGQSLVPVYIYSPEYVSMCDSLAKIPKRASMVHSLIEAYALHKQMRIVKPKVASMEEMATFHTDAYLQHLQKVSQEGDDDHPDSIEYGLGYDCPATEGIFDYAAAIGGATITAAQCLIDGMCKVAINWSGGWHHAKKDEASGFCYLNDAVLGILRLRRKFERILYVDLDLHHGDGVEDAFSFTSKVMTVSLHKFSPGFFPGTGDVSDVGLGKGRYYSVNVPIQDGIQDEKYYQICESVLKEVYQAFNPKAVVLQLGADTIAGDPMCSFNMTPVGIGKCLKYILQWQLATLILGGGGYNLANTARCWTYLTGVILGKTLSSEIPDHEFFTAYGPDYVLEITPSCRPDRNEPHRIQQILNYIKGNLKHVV
The experiment in a line: Inhibition of HDAC8 (unknown origin) incubated for 1 hr by fluor de lys substrate based fluorescence method.

Chain of Histone deacetylase 1 (Q13547 whole entry): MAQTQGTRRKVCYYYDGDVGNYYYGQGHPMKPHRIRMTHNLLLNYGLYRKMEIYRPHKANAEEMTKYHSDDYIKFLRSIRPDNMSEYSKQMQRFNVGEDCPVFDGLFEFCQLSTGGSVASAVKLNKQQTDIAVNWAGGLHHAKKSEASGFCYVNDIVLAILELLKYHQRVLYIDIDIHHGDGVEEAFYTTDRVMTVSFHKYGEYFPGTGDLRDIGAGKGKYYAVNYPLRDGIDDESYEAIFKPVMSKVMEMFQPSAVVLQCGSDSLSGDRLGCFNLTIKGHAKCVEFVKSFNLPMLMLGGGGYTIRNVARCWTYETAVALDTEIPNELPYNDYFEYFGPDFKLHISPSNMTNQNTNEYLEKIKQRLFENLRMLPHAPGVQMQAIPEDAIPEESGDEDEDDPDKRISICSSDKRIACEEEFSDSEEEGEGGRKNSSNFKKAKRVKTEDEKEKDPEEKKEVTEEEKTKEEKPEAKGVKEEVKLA

For the compound `CC(C)[C@H]1NC(=O)C[C@H]2/C=C/CCSSC[C@@H](NC1=O)C(=O)NCc1ccccc1CC(=O)O2`, the IC50 – broadly, the concentration needed to halve the response being measured – amounted to 400 nM in “cells” and 2500 nM with IGROV-1.
With `CC(C)[C@H]1NC(=O)C[C@H]2/C=C/CCSSC[C@@H](NC1=O)C(=O)NCc1cc(-c3ccccc3)ccc1CC(=O)O2`, the TGI entry with HCT-116 was “Active”. Besides, the 50% inhibitory concentration (IC50) in the data set “cells” worked out at 200 nM; in the data set on IGROV-1, 600 nM. Also, in the data set on Mus musculus, the Activity result is reported as “Non-toxic”.
In the case of `CC(=O)SCC/C=C/[C@@H]1CC(=O)N[C@H](Cc2ccccc2)C(=O)N[C@H](C)C(=O)N[C@H](C(C)C)c2cn(nn2)CC(=O)O1`, the IC50 in the data set “cells” was 120 nM; in the data set on IGROV-1, 970 nM.
The like results for `CC(C)[C@H]1NC(=O)C[C@H]2/C=C/CCSSC[C@@H](NC1=O)C(=O)N1CCC(CC1)CC(=O)O2` were, in that order, above 10000 nM and above 10000 nM.
The like results for `CC(C)[C@H]1NC(=O)C[C@H]2/C=C/CCSSC[C@@H](NC1=O)C(=O)NCc1[nH]c3ccccc3c1CC(=O)O2` were, in that order, 780 nM and 2810 nM.
Consider `CC(=O)SCC/C=C/[C@@H]1CC(=O)N[C@H](C(C)C)C(=O)N[C@H](Cc2cn(C)cn2)C(=O)N[C@H](C(C)C)c2cn(nn2)CC(=O)O1`, for which the IC50 at Histone deacetylase 1 was found to be 1040 nM; in data set [1], 9890 nM; in the data set “cells” it was 1500 nM; with IGROV-1, 10600 nM; against Histone deacetylase 8 it was 1620 nM.
In the case of `CC[C@H]1NC(=O)[C@@H](C(C)C)NC(=O)C[C@@H](/C=C/CCSC(C)=O)OC(=O)CNC(=O)[C@@H](C(C)C)NC1=O`, the results for the half-maximal inhibitory concentration (IC50) in the data set “cells” and in the data set on IGROV-1 were 270 nM and 6000 nM, respectively.
The like results for `CC(C)[C@H]1NC(=O)C[C@H]2/C=C/CCSSC[C@@H](NC1=O)C(=O)NCc1cc(Br)ccc1CC(=O)O2` were, in that order, 2500 nM and 2000 nM.
In the case of `CC(=O)SCC/C=C/[C@@H]1CC(=O)N[C@H](C(C)C)C(=O)N[C@H](Cc2ccccc2)C(=O)N[C@H](C(C)C)c2cn(nn2)CC(=O)O1`, the concentration for half-maximal inhibition (IC50) was 1050 nM on Histone deacetylase 1; 8670 nM in data set [1]; 190 nM in “cells”; 3100 nM in the data set on IGROV-1; 1800 nM against Histone deacetylase 8.
As for `CC(C)[C@@H]1NC(=O)CC(=O)O[C@@H]2/C=C/CCSSC[C@@H](NC(=O)[C@@H](C(C)C)NC(=O)C2)C(=O)N1`, the results for the concentration for half-maximal inhibition (IC50) in “cells” and in the data set on IGROV-1 were 11000 nM and 3300 nM, respectively.
For `CC(C)[C@H]1NC(=O)C[C@H]2/C=C/CCSSC[C@@H](NC1=O)C(=O)NCc1cc(OC(F)(F)F)ccc1CC(=O)O2`, the half-maximal inhibitory concentration (IC50) in “cells” was found to be 180 nM; in the data set on IGROV-1, 510 nM.
As to `CC(C)[C@H]1NC(=O)C[C@H]2/C=C/CCSSC[C@@H](NC1=O)C(=O)NCc1ccc(Cl)cc1CC(=O)O2`, the IC50 was determined as 470 nM in the data set “cells” and 3500 nM with IGROV-1.
For `C=C(C)[C@H]1NC(=O)[C@H]2CSSCC/C=C/[C@H](CC(=O)N[C@H](C)C(=O)N2)OC(=O)C[C@@H]1O` [SPIRUCHOSTATIN A] the same measures were 15 nM and 25 nM.
The like results for `CC(C)[C@H]1NC(=O)C[C@H]2/C=C/CCSSC[C@@H](NC1=O)C(=O)Nc1cccc(c1)CC(=O)O2` were, in that order, above 10000 nM and above 10000 nM.
With `CC(C)[C@H]1NC(=O)C[C@H]2/C=C/CCSSC[C@@H](NC1=O)C(=O)N[C@H](C(C)C)c1cn(nn1)CC(=O)O2`, the concentration for half-maximal inhibition (IC50) in “cells” is 110 nM; in the data set on IGROV-1, 400 nM.
On to `CC(C)[C@H]1NC(=O)C[C@H]2/C=C/CCSSC[C@@H](NC1=O)C(=O)NC1CCC(CC1)C(=O)O2`, for which the IC50 in the data set “cells” is 1500 nM; with IGROV-1, 7000 nM.
On to `CCCCCCCC(=O)SCC/C=C/[C@@H]1CC(=O)N[C@H](C(C)C)C(=O)N[C@H](C)C(=O)N[C@H](C(C)C)C(=O)NCC(=O)O1`, for which the IC50 against Histone deacetylase 1 was 1270 nM; in data set [1] it was 18300 nM; in “cells”, 9 nM; in the data set with IGROV-1, 230 nM; at Histone deacetylase 8, 14300 nM.
With `CC(=O)SCC/C=C/[C@@H]1CC(=O)N[C@H](C(C)C)C(=O)N[C@H](Cc2ccc(O)cc2)C(=O)N[C@H](C(C)C)c2cn(nn2)CC(=O)O1`, the values for the IC50 in the data set “cells” and in the data set on IGROV-1 were 2200 nM and above 10000 nM, respectively.
In the case of `CC(C)[C@H]1NC(=O)C[C@H]2/C=C/CCSSC[C@@H](NC1=O)C(=O)Nc1ccccc1C(=O)NCC(=O)O2`, the concentration for half-maximal inhibition (IC50) in the data set “cells” and with IGROV-1 was above 10000 nM each time.
For `CC(C)[C@H]1NC(=O)C[C@H]2/C=C/CCSSC[C@@H](NC1=O)C(=O)N(C)Cc1ccccc1CC(=O)O2`, the half-maximal inhibitory concentration (IC50) in “cells” and in the data set with IGROV-1 was above 10000 nM throughout.
For the compound `CCCCCCCCSSCC/C=C/[C@@H]1CC(=O)N[C@H](C(C)C)C(=O)N[C@H](C)C(=O)N[C@H](C(C)C)C(=O)NCC(=O)O1`, the half-maximal inhibitory concentration (IC50) against Histone deacetylase 1 was 820 nM; in data set [1] it was 8900 nM; in the data set “cells”, 30 nM; with IGROV-1, 700 nM; on Histone deacetylase 8, 8010 nM.
In the case of `CC(C)[C@H]1NC(=O)C[C@H]2/C=C/CCSSC[C@@H](NC1=O)C(=O)NCc1ccc(Br)cc1CC(=O)O2`, the 50% inhibitory concentration (IC50) in the data set “cells” came out at 380 nM; in the data set on IGROV-1 it was 2750 nM.

Values taken from ChEMBL document CHEMBL3627628, “New macrocyclic analogs of the natural histone deacetylase inhibitor FK228; design, synthesis and preliminary biological evaluation” (Bioorg Med Chem, 2015).
